A word on the IC50: it is the point on the concentration scale where inhibition reaches its midpoint.

This assay concerns the target T1, human neutrophil elastase (HNE) (Homo sapiens, UniProt P08246).
T1 construct: purchased Sigma E8140
T1 sequence (P08246 30-267): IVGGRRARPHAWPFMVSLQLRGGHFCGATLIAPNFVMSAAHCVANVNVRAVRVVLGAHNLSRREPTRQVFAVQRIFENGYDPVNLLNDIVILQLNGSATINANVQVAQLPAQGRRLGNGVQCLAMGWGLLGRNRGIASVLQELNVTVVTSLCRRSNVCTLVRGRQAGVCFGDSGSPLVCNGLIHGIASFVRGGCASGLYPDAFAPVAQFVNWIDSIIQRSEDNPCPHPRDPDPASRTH
The assay can be described thus: HNE enzyme assay (human neutrophil elastase enzyme activity, fluorogenic peptide substrate). Format: biochemical. The settings on record: human leukocyte elastase 0.00072 U/mL; MeOSuc-Ala-Ala-Pro-Val-AMC 100 μM; 25° C., 30 minutes; at least two separate experiments; read-out: HNE inhibition (IC50 values). The procedure: Compounds of this invention were tested for potency in a human neutrophil elastase (HNE) enzyme activity assay.
Assays were performed in 96-well plates in a total assay volume of 100 μL. The final concentration of elastase enzyme (human leukocyte elastase, Sigma E8140) was 0.00072 U/mL. The peptide substrate (MeOSuc-Ala-Ala-Pro-Val-AMC, Calbiochem #324740) was used at a final concentration of 100 μM. The final concentration of DMSO was 1% in the assay buffer (0.05M Tris.HCl, 0.1M NaCl, 0.1M CaCl2, 0.0005% brij-35, pH 7.5). The enzymatic reaction was started by addition of the enzyme and incubated at 25° C. for 30 minutes. After incubation, the reaction was stopped by addition of soybean trypsin inhibitor (Sigma T9003) at a final concentration of 50 μg/well. Fluorescence was measured using a Molecular Devices fluorescence plate reader using 380 nm excitation and 460 nm emission wavelengths.
A dose response to each compound was performed and the effect of the compound in each experiment was expressed as a percentage inhibition of the control enzyme fluorescence. Dose response curves were plotted and compound potency (IC50) was determined. Compounds were tested in at least two separate experiments.
Turning to `COC(=O)C1=C(C)N(c2cccc(C(F)(F)F)c2)c2n[nH]c(=O)n2[C@H]1c1ccc(C#N)cc1OC` (racemic) [Example 33b], the concentration for half-maximal inhibition (IC50) is 20 to 100 nM. For `CC1=C(C#N)[C@@H](c2ccc(C#N)cc2C(O)CO)n2c(n[nH]c2=O)N1c1cccc(C(F)F)c1` (mixture of isomers) [Example 39d, (R) and (S)-5-[4-Cyano-2-(1,2-dihydroxy-ethyl)-phenyl]-8-(3-difluoromethyl-phenyl)-7-methyl-3-oxo-2,3,5,8-tetrahydro-[1,2,4]triazolo[4,3-a]pyrimidine-6-carbonitrile] the value was 20 to 100 nM; for `COCCOc1cc(C#N)ccc1[C@@H]1C(C(=O)OC)=C(C)N(c2cccc(C(F)(F)F)c2)c2n[nH]c(=O)n21` (single isomer, unassigned) [Example 34a], below 20 nM. Consider `COCCOc1cc(C#N)ccc1[C@@H]1C(C(=O)OC)=C(C)N(c2cccc(C(F)(F)F)c2)c2n[nH]c(=O)n21` (single isomer, unassigned) [Example 34b], for which the IC50 fell in the range of 20 to 100 nM. For `CC1=C(C#N)[C@@H](c2ccc(C#N)cc2C(O)CO)n2c(n[nH]c2=O)N1c1cccc(C(F)(F)F)c1` (single isomer, unassigned) [Example 35a] the value was below 20 nM. For `CC1=C(C#N)[C@@H](c2ccc(C#N)cc2CCO)n2c(n[nH]c2=O)N1c1cccc(C(F)F)c1` (single isomer, unassigned) [Example 38a] the value was below 20 nM. For `CC1=C(C#N)[C@@H](c2ccc(C#N)cc2CCO)n2c(n[nH]c2=O)N1c1cccc(C(F)F)c1` (single isomer, unassigned) [Example 38b] the value was 100 to 500 nM. `CC1=C(C#N)[C@@H](c2ccc(C#N)cc2C(O)CO)n2c(n[nH]c2=O)N1c1cccc(C(F)F)c1` (single isomer, unassigned) [Example 39a]: the concentration for half-maximal inhibition (IC50) is below 20 nM. For `CC1=C(C#N)C(c2ccc(C#N)cc2C(O)CO)n2c(n[nH]c2=O)N1c1cccc(C(F)F)c1` (single isomer, unassigned) [Example 39b] the value was 100 to 500 nM; for `CC1=C(C#N)[C@@H](c2ccc(C#N)cc2CCO)n2c(n[nH]c2=O)N1c1cccc(C(F)(F)F)c1` [Example 36, (R)-5-[4-Cyano-2-(2-hydroxy-ethyl)-phenyl]-7-methyl-3-oxo-8-(3-trifluoromethyl-phenyl)-2,3,5,8-tetrahydro-[1,2,4]triazolo[4,3-a]pyrimidine-6-carbonitrile], below 20 nM.

Regarding `CC1=C(C#N)[C@@H](c2ccc(C#N)cc2CCS(C)(=O)=O)n2c(n[nH]c2=O)N1c1cccc(C(F)(F)F)c1` [Example 37, (R)-5-[4-Cyano-2-(2-methanesulfonyl-ethyl)-phenyl]-7-methyl-3-oxo-8-(3-trifluoromethyl-phenyl)-2,3,5,8-tetrahydro-[1,2,4]triazolo[4,3-a]pyrimidine-6-carbonitrile], the IC50 was below 20 nM.

Values taken from patent US9487528B2 (CHIESI FARMACEUTICI S.p.A., priority 2014, dated 2016).
